Laboratory results: US8431712B2, “Methods for the synthesis of pyridoxamine” (NephroGenex, Inc., priority 2004, dated 2013)

Target: post-Amadori AGE formation (RNase Amadori)
Test: Post-Amadori inhibitory activity: inhibition of AGE formation from RNase Amadori, detected by ELISA (BST-3CK antibody, DELFIA Europium)
Format: biochemical
Details: for potency at inhibiting post-Amadori AGE formation compared to PM: comparison with pyridoxamine (PM)
Protocol: This example illustrates the activity of the dimer and trimer for inhibiting post-Amadori AGE formation compared to pyridoxamine.
All reactions were done in duplicate All compound stocks were 100 mM in DMSO. All reactions were carried out for 20 hours in 10% DMSO and 0.18 M Phosphate pH 7.4 Reaction volumes were 50 μl. Compound dilutions were first done in 100% DMSO Add to each well: • 20 μl of 0.2 M Phosphate • then 5 μl of compound dilution in 100% DMSO mix • Add 25 μl of 0.2 mg/ml RNase Amadori produced for a final protein concentration in the reaction of 0.1 mg/ml. • After 20 hours the reaction wells were diluted with coating buffer 5 to 50 then 4 to 50 to give a final concentration of 0.8 μg/ml or 40 ng/well. • Coat for two hours • Block one hour • 1 hour with primary antibody BST-3CK @ 1:10,000 • 1 hour with secondary antibody DELFIA Europium GAR @ 0.25 μg/ml (secondary antibody stock is at 660 μg/ml so diluted about 1:2500).
Compounds were tested over the range of concentrations 1000 to 1 μM.

[1] = 20 hours, 10% DMSO, 0.18 M Phosphate pH 7.4, 0.1 mg/ml RNase Amadori, tested 1000 to 1 μM, duplicate

SMILES | IC50 (from previous experiments) | IC50 [1] | potency at inhibiting post-Amadori AGE formation compared to PM
Cc1ncc(CO)c(CN)c1O [Sigma PM, 4-aminomethyl-3-hydroxy-5-hydroxymethyl-2-methylpyridine, reference compound] | 7000 µM | – | –
Cc1ncc(CO)c(Cc2nc(C)c(O)c(Cc3nc(C)c(O)c(CN)c3CO)c2CO)c1O [Trimer XX] | – | 400 µM | more potent than PM
Cc1ncc(CO)c(Cc2nc(C)c(O)c(CN)c2CO)c1O [Dimer X] | – | 1000 µM | more potent than PM
